In ChEMBL document CHEMBL4433269, “Design, synthesis and evaluation of biphenyl imidazole analogues as potent antifungal agents” (Bioorg Med Chem Lett, 2019):

Assays:
Candida albicans [1] = assay: Antifungal activity against Candida albicans ATCC SC5314 assessed as inhibition of visible microbe growth by broth microdilution method; format: functional
Candida albicans [2] = assay: Antifungal activity against Candida albicans CPCC 400523 assessed as inhibition of visible microbe growth by broth microdilution method; format: functional
Cryptococcus neoformans = assay: Antifungal activity against Cryptococcus neoformans cgmcc 2.3161 assessed as inhibition of visible microbe growth by broth microdilution method; format: functional
Candida tropicalis = assay: Antifungal activity against Candida tropicalis cgmcc 2.3739 assessed as inhibition of visible microbe growth by broth microdilution method; format: functional
Aspergillus fumigatus = assay: Antifungal activity against Aspergillus fumigatus cgmcc 3.7795 assessed as inhibition of visible microbe growth by broth microdilution method; format: functional
Candida albicans [3] = assay: Antifungal activity against fluconazole-resistant Candida albicans 100 assessed as inhibition of visible microbe growth by broth microdilution method; format: functional
Candida albicans [4] = assay: Antifungal activity against fluconazole-resistant Candida albicans 103 assessed as inhibition of visible microbe growth by broth microdilution method; format: functional
Cytochrome P450 1A2 = molecular target: T1, Cytochrome P450 1A2 (Homo sapiens, UniProt P05177); assay: Inhibition of CYP1A2 in human liver microsomes using phenacetin pre-incubated for 10 mins before NADPH addition and measured after 10 mins by LC/MS/MS analysis; format: ADME
T1 sequence (P05177 whole entry): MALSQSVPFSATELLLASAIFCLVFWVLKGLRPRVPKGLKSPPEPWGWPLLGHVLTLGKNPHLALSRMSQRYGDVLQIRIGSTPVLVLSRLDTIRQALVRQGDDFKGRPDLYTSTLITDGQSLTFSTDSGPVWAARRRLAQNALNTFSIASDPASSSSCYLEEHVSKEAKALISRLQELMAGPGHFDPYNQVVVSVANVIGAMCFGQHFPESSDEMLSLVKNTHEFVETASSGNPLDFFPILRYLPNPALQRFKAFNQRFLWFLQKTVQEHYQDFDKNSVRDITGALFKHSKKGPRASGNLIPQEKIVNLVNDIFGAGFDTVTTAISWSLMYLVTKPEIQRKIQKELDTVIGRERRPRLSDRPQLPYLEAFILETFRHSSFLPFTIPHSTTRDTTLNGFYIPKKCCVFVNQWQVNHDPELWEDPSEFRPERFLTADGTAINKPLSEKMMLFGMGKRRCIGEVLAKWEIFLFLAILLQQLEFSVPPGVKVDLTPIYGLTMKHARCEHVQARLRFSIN

Cytochrome P450 2C9 = Cytochrome P450 2C9 (Homo sapiens, UniProt P11712); assay: Inhibition of CYP2C9 in human liver microsomes using diclofenac pre-incubated for 10 mins before NADPH addition and measured after 10 mins by LC/MS/MS analysis; format: ADME
Chain of Cytochrome P450 2C9 (P11712 whole entry): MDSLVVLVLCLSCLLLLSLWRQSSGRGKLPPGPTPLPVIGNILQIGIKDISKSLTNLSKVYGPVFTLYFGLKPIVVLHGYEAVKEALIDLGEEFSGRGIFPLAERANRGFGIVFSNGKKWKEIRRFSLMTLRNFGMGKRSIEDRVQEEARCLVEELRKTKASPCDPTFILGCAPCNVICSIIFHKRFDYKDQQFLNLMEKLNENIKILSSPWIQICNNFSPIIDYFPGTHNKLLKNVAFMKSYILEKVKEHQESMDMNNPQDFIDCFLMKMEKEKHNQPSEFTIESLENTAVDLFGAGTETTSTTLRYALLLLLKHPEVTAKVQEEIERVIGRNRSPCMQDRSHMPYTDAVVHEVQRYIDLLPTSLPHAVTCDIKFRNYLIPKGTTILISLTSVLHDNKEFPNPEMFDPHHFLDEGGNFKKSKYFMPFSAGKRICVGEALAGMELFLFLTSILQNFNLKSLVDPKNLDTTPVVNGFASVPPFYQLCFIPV

Cytochrome P450 2C19 = Cytochrome P450 2C19 (Homo sapiens, UniProt P33261); assay: Inhibition of CYP2C19 in human liver microsomes using S-mephenytoin pre-incubated for 10 mins before NADPH addition and measured after 10 mins by LC/MS/MS analysis; format: ADME
Chain of Cytochrome P450 2C19 (P33261 whole entry): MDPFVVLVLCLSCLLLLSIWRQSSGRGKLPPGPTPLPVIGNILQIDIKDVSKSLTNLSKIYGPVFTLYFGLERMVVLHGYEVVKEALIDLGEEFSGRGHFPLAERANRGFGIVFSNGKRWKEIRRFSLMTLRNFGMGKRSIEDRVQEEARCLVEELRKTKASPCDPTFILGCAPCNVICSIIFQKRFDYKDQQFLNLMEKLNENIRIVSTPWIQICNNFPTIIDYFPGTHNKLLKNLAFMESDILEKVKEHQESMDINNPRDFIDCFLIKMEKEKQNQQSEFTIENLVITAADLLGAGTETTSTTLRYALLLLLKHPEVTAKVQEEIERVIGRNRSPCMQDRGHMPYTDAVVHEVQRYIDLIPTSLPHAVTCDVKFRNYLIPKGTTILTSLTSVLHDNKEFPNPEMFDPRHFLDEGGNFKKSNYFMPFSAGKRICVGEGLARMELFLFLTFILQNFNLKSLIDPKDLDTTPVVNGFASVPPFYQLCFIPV

Cytochrome P450 2D6 = Cytochrome P450 2D6 (Homo sapiens, UniProt P10635); assay: Inhibition of CYP2D6 in human liver microsomes using dextromethorphan pre-incubated for 10 mins before NADPH addition and measured after 10 mins by LC/MS/MS analysis; format: ADME
Chain of Cytochrome P450 2D6 (P10635 whole entry): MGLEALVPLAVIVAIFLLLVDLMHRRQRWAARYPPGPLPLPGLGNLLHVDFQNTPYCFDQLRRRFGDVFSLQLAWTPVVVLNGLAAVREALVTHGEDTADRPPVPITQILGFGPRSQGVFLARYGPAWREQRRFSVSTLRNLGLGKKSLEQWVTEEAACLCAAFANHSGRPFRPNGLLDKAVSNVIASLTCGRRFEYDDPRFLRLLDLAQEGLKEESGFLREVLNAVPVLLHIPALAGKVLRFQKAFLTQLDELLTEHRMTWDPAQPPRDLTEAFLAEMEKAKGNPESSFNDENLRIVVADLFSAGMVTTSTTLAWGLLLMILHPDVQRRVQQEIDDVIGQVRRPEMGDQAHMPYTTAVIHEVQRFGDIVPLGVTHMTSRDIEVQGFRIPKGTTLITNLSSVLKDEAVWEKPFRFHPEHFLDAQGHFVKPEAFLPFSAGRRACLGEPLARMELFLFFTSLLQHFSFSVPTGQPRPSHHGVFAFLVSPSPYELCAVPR

Cytochrome P450 3A4 = Cytochrome P450 3A4 (Homo sapiens, UniProt P08684); assay: Inhibition of CYP3A4 in human liver microsomes using midazolam pre-incubated for 10 mins before NADPH addition and measured after 10 mins by LC/MS/MS analysis; format: ADME
Chain of Cytochrome P450 3A4 (P08684 whole entry): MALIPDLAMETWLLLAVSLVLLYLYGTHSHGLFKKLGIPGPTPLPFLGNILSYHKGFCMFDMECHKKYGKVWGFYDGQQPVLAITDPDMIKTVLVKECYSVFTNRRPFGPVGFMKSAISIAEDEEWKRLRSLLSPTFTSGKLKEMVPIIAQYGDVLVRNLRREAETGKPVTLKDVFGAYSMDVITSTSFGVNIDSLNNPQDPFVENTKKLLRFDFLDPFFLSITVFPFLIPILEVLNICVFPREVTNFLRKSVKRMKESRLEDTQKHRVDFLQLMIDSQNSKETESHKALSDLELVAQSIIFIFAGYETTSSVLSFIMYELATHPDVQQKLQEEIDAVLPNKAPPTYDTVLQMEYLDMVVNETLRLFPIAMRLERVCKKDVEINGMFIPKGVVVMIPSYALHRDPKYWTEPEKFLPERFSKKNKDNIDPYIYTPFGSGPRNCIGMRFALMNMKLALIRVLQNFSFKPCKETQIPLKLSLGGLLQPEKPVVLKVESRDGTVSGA

A549 = assay: Cytotoxicity in human A549 cells assessed as reduction in cell viability incubated for 24 hrs by MTT assay; format: cell-based; conditions: A549, 24 h
U-87 MG = assay: Cytotoxicity in human U87 cells assessed as reduction in cell viability incubated for 24 hrs by MTT assay; format: cell-based, U-87MG ATCC

COc1cc(-c2ccccc2)ccc1C(=O)N[C@@H](Cn1ccnc1)C(=O)OC(C)C
MIC (Candida albicans [1]): 8 µg/mL | MIC (Candida albicans [2]): 1 µg/mL | MIC (Cryptococcus neoformans): > 16 µg/mL | MIC (Candida tropicalis): 1 µg/mL | MIC (Aspergillus fumigatus): > 16 µg/mL

COc1cc(-c2ccccc2)ccc1C(=O)N[C@@H](Cn1ccnc1)C(=O)OCC(C)C
MIC (Candida albicans [1]): > 16 µg/mL | MIC (Candida albicans [2]): 4 µg/mL | MIC (Cryptococcus neoformans): > 16 µg/mL | MIC (Candida tropicalis): 2 µg/mL | MIC (Aspergillus fumigatus): > 16 µg/mL

CC(C)OC(=O)[C@H](Cn1ccnc1)NC(=O)c1ccc(-c2ccccc2)c(Cl)c1
MIC (Candida albicans [1]): 8 µg/mL | MIC (Candida albicans [2]): 8 µg/mL | MIC (Cryptococcus neoformans): 8 µg/mL | MIC (Candida tropicalis): 1 µg/mL | MIC (Aspergillus fumigatus): > 16 µg/mL

CC(C)COC(=O)[C@H](Cn1ccnc1)NC(=O)c1ccc(-c2ccccc2)cc1F
MIC (Candida albicans [1]): 0.25 µg/mL | MIC (Candida albicans [2]): 0.0312 µg/mL | MIC (Cryptococcus neoformans): > 16 µg/mL | MIC (Candida tropicalis): 0.0312 µg/mL | MIC (Aspergillus fumigatus): 8 µg/mL

CC(C)COC(=O)[C@H](Cn1ccnc1)NC(=O)c1ccc(-c2ccccc2F)c(F)c1
MIC (Candida albicans [1]): 0.25 µg/mL | MIC (Candida albicans [2]): 0.0625 µg/mL | MIC (Cryptococcus neoformans): > 16 µg/mL | MIC (Candida tropicalis): 0.0625 µg/mL | MIC (Aspergillus fumigatus): > 16 µg/mL | MIC (Candida albicans [3]): 8 µg/mL | MIC (Candida albicans [4]): 4 µg/mL

CC(C)COC(=O)[C@H](Cn1ccnc1)NC(=O)c1ccc(-c2ccccc2)c(Cl)c1
MIC (Candida albicans [1]): 4 µg/mL | MIC (Candida albicans [2]): 8 µg/mL | MIC (Cryptococcus neoformans): 8 µg/mL | MIC (Candida tropicalis): 0.25 µg/mL | MIC (Aspergillus fumigatus): > 16 µg/mL

CC(C)COC(=O)[C@H](Cn1ccnc1)NC(=O)c1c(F)cc(-c2ccccc2)cc1F
MIC (Candida albicans [1]): 0.5 µg/mL | MIC (Candida albicans [2]): 2 µg/mL | MIC (Cryptococcus neoformans): > 16 µg/mL | MIC (Candida tropicalis): 2 µg/mL | MIC (Aspergillus fumigatus): > 16 µg/mL

CCC(C)n1ncn(-c2ccc(N3CCN(c4ccc(OCC5COC(Cn6cncn6)(c6ccc(Cl)cc6Cl)O5)cc4)CC3)cc2)c1=O (centres undefined) [ITRACONAZOLE]
MIC (Candida albicans [1]): 0.0625 µg/mL | MIC (Candida albicans [2]): 0.25 µg/mL | MIC (Cryptococcus neoformans): 1 µg/mL | MIC (Candida tropicalis): 0.5 µg/mL | MIC (Aspergillus fumigatus): 4 µg/mL

CC(C)COC(=O)[C@H](Cn1ccnc1)NC(=O)c1ccc(-c2ccccc2)c(F)c1
MIC (Candida albicans [1]): 0.25 µg/mL | MIC (Candida albicans [2]): 0.0312 µg/mL | MIC (Cryptococcus neoformans): > 16 µg/mL | MIC (Candida tropicalis): 0.0312 µg/mL | MIC (Aspergillus fumigatus): 4 µg/mL

Cc1cc(C(=O)N[C@@H](Cn2ccnc2)C(=O)OC(C)C)ccc1-c1ccccc1
MIC (Candida albicans [1]): > 16 µg/mL | MIC (Candida albicans [2]): > 16 µg/mL | MIC (Cryptococcus neoformans): > 16 µg/mL | MIC (Candida tropicalis): 8 µg/mL | MIC (Aspergillus fumigatus): > 16 µg/mL

CC(C)COC(=O)[C@H](Cn1ccnc1)NC(=O)c1ccc(-c2ccccc2F)cc1F
MIC (Candida albicans [1]): 0.5 µg/mL | MIC (Candida albicans [2]): 0.125 µg/mL | MIC (Cryptococcus neoformans): > 16 µg/mL | MIC (Candida tropicalis): 0.25 µg/mL | MIC (Aspergillus fumigatus): > 16 µg/mL

Cc1cc(C(=O)N[C@@H](Cn2ccnc2)C(=O)OCC(C)C)ccc1-c1ccccc1
MIC (Candida albicans [1]): > 16 µg/mL | MIC (Candida albicans [2]): > 16 µg/mL | MIC (Cryptococcus neoformans): > 16 µg/mL | MIC (Candida tropicalis): 4 µg/mL | MIC (Aspergillus fumigatus): > 16 µg/mL

CC(C)OC(=O)[C@H](Cn1ccnc1)NC(=O)c1ccc(-c2ccccc2F)c(F)c1
MIC (Candida albicans [1]): 0.0625 µg/mL | MIC (Candida albicans [2]): 0.0312 µg/mL | MIC (Cryptococcus neoformans): 8 µg/mL | MIC (Candida tropicalis): 0.0312 µg/mL | MIC (Aspergillus fumigatus): > 16 µg/mL | MIC (Candida albicans [3]): 16 µg/mL | MIC (Candida albicans [4]): 2 µg/mL

CC(C)OC(=O)[C@H](Cn1ccnc1)NC(=O)c1ccc(-c2ccccc2)c(F)c1
MIC (Candida albicans [1]): 0.5 µg/mL | MIC (Candida albicans [2]): 0.0312 µg/mL | MIC (Cryptococcus neoformans): 8 µg/mL | MIC (Candida tropicalis): 0.0312 µg/mL | MIC (Aspergillus fumigatus): 2 µg/mL | MIC (Candida albicans [3]): 8 µg/mL | MIC (Candida albicans [4]): 2 µg/mL | IC50 (Cytochrome P450 1A2): > 50 µM | IC50 (Cytochrome P450 2C9): > 50 µM | IC50 (Cytochrome P450 2C19): 43.4 µM | IC50 (Cytochrome P450 2D6): > 50 µM | IC50 (Cytochrome P450 3A4): 4.05 µM | IC50 (A549): > 50 µM | IC50 (U-87 MG): > 50 µM

CC(C)COC(=O)[C@H](Cn1ccnc1)NC(=O)c1ccc(-c2ccc(C#N)cc2)cc1F
MIC (Candida albicans [1]): > 16 µg/mL | MIC (Candida albicans [2]): > 16 µg/mL | MIC (Cryptococcus neoformans): > 16 µg/mL | MIC (Candida tropicalis): 0.5 µg/mL | MIC (Aspergillus fumigatus): > 16 µg/mL

CC(C)OC(=O)[C@H](Cn1ccnc1)NC(=O)c1ccc(-c2ccccc2F)cc1F
MIC (Candida albicans [1]): 0.5 µg/mL | MIC (Candida albicans [2]): 0.125 µg/mL | MIC (Cryptococcus neoformans): > 16 µg/mL | MIC (Candida tropicalis): 0.25 µg/mL | MIC (Aspergillus fumigatus): > 16 µg/mL

CC(C)OC(=O)[C@H](Cn1ccnc1)NC(=O)c1ccc(-c2ccccc2)cc1Cl
MIC (Candida albicans [1]): 4 µg/mL | MIC (Candida albicans [2]): 8 µg/mL | MIC (Cryptococcus neoformans): 8 µg/mL | MIC (Candida tropicalis): 0.5 µg/mL | MIC (Aspergillus fumigatus): > 16 µg/mL

CC(C)COC(=O)[C@H](Cn1ccnc1)NC(=O)c1ccc(-c2ccccc2)cc1Cl
MIC (Candida albicans [1]): 4 µg/mL | MIC (Candida albicans [2]): 8 µg/mL | MIC (Cryptococcus neoformans): 8 µg/mL | MIC (Candida tropicalis): 0.25 µg/mL | MIC (Aspergillus fumigatus): > 16 µg/mL

OC(Cn1cncn1)(Cn1cncn1)c1ccc(F)cc1F [FLUCONAZOLE]
MIC (Candida albicans [1]): 0.5 µg/mL | MIC (Candida albicans [2]): 1 µg/mL | MIC (Cryptococcus neoformans): 4 µg/mL | MIC (Candida tropicalis): 1 µg/mL | MIC (Aspergillus fumigatus): > 16 µg/mL | MIC (Candida albicans [3]): > 64 µg/mL | MIC (Candida albicans [4]): > 64 µg/mL

CC(C)OC(=O)[C@H](Cn1ccnc1)NC(=O)c1ccc(-c2ccccc2)cc1F
MIC (Candida albicans [1]): 0.25 µg/mL | MIC (Candida albicans [2]): 0.0312 µg/mL | MIC (Cryptococcus neoformans): > 16 µg/mL | MIC (Candida tropicalis): 0.0312 µg/mL | MIC (Aspergillus fumigatus): 4 µg/mL | MIC (Candida albicans [3]): 16 µg/mL | MIC (Candida albicans [4]): 4 µg/mL | IC50 (Cytochrome P450 1A2): > 50 µM | IC50 (Cytochrome P450 2C9): 4.49 µM | IC50 (Cytochrome P450 2C19): 7.44 µM | IC50 (Cytochrome P450 2D6): 19.1 µM | IC50 (Cytochrome P450 3A4): 0.0429 µM | IC50 (A549): > 50 µM | IC50 (U-87 MG): > 50 µM

Cc1cc(-c2ccccc2)ccc1C(=O)N[C@@H](Cn1ccnc1)C(=O)OCC(C)C
MIC (Candida albicans [1]): > 16 µg/mL | MIC (Candida albicans [2]): 2 µg/mL | MIC (Cryptococcus neoformans): > 16 µg/mL | MIC (Candida tropicalis): 0.5 µg/mL | MIC (Aspergillus fumigatus): > 16 µg/mL

Cc1cc(-c2ccccc2)ccc1C(=O)N[C@@H](Cn1ccnc1)C(=O)OC(C)C
MIC (Candida albicans [1]): > 16 µg/mL | MIC (Candida albicans [2]): 2 µg/mL | MIC (Cryptococcus neoformans): > 16 µg/mL | MIC (Candida tropicalis): 0.5 µg/mL | MIC (Aspergillus fumigatus): > 16 µg/mL

CC(C)OC(=O)[C@H](Cn1ccnc1)NC(=O)c1c(F)cc(-c2ccccc2)cc1F
MIC (Candida albicans [1]): 0.5 µg/mL | MIC (Candida albicans [2]): 2 µg/mL | MIC (Cryptococcus neoformans): > 16 µg/mL | MIC (Candida tropicalis): 0.5 µg/mL | MIC (Aspergillus fumigatus): > 16 µg/mL

CC(C)OC(=O)[C@H](Cn1ccnc1)NC(=O)c1ccc(-c2ccc(C#N)cc2)cc1F
MIC (Candida albicans [1]): 8 µg/mL | MIC (Candida albicans [2]): 4 µg/mL | MIC (Cryptococcus neoformans): > 16 µg/mL | MIC (Candida tropicalis): 2 µg/mL | MIC (Aspergillus fumigatus): > 16 µg/mL
